Here are results for 3 substances from article PMC3816693, “Cell Penetration Properties of a Highly Efficient Mini Maurocalcine Peptide” (Pharmaceuticals, 2013).

Bridges are numbered along the chain shown (N, C = ends). Where no end group is shown, it is not given here.

The subject of data set [1] is glioma F98 cells. Kind of data set: Cell penetration of Cy5-labeled peptides by flow cytometry (FACS). It counts as cell-based, rat. The settings on record: 2 h; for fold decrease in cell penetration efficacy relative to MCaUF1-9-C-Cy5: 3 µM, flow cytometry. The procedure:
Undifferentiated malignant glioma rat (F98) cell line (from ATCC) was maintained at 37 °C in 5% CO2 in DMEM/F-12 nutrient medium (Invitrogen, Cergy Pontoise, France) supplemented with 2% (v/v) heat-inactivated fetal bovine serum (Invitrogen) and 100 µg/mL streptomycine and 100 units/mL penicillin (Invitrogen).
F98 cells were incubated with various concentrations of Cy5-labeled peptides in DMEM/F-12 culture medium without serum at 37 °C for 2 h. The cells were then washed with PBS to remove excess extracellular peptide and treated with 0.48 mM versene (Invitrogen) for 5 min at 37 °C to detach cells from the surface, and centrifuged at 200 g in DMEM/F-12 culture medium before suspension in PBS. For experiments concerning endocytosis inhibitors, F98 cells were initially preincubated in DMEM/F-12 culture medium without serum for 30 min at 37 °C with different inhibitors of endocytosis: (i) 100 µM amiloride, (ii) 5 µg/mL cytochalasin D (10 µM), (iii) 20 µM nocodazole, or (iv) 5 mM methyl-β-cyclodextrin (all from Sigma, Lyon, France). The cells were then incubated for 2 h at 37 °C with 1 µM MCaUF1-9-C-Cy5 in the presence of each drug. Flow cytometry analyses were performed with live cells using an Accuri C6 flow cytometer (BD Biosciences, Le Pont de Claix, France). Data were obtained and analyzed using CFlow Sampler (BD Biosciences). Live cells were gated by forward/side scattering from a total of 10,000 events.

For data set [2] the following is noted: cited from earlier work. From the text:
Even if the mechanism(s) of penetration of CPP are subject to debate, because of the rapidity of action of MCa on the ryanodine receptor, it appears clearly that one way of penetration of MCa can be membrane translocation. Furthermore, MCa has the ability to bind onto glycosaminoglycans, including heparin and heparan sulfates, with micromolar affinity.

For data set [3] the following is noted: high temperatures up to 100 °C or extreme pH values; cited from earlier work. An excerpt:
Maurocalcine (MCa) is a 33 amino acid residue peptide that was isolated in 2000 from the venom of the Tunisian chactid scorpion Scorpio maurus palmatus. It folds according to an ‘Inhibitor Cystine Knot’ (ICK) motif and contains three disulfide bridges connected by the following pattern: C1-C4, C2-C5 and C3-C6 [3]. Based on high amino acid sequence and pharmacological target similarities, MCa belongs to a larger family of scorpion toxins that also includes imperatoxin A (from Pandinus imperator), opicalcine 1 and opicalcine 2 (from Opistophthalmus carinatus), hemicalci ...

Consider “MCaUF1-9(A3)-C-Cy5: Abu3 replaced by Ala”, for which the “fold decrease in cell penetration efficacy relative to MCaUF1-9-C-Cy5” value in data set [1] is 1.08 fold.

Regarding “MCaUF1-9(Q3)-C-Cy5: Abu3 replaced by Gln”, the “fold decrease in cell penetration efficacy relative to MCaUF1-9-C-Cy5” value in data set [1] is listed as 2.94 fold. Also, the “cell penetration compared with TAT-C-Cy5 as standard” value in data set [1] (dose-response by flow cytometry) was “behaved similarly to TAT”.

Consider “Maurocalcine (GDCLPHLKLCKENKDCCSKKCKRRGTNIEKRCR; disulfide 10-21, 16-32, 3-17; UniProt P60254 1-33, looked up) [MCa]”, for which the “affinity of binding onto glycosaminoglycans” value in data set [2] was “micromolar”. In addition, the “stability of structure against denaturation” value in data set [3] is reported as “cannot be denatured”.
